In patent US9549884B2, “Retinoid derivatives and process for their preparation” (SELEGO AB, priority 2013, dated 2017):
≈ marks a conversion by molar mass, not a printed value.

Experiments:
[1] = Storage stability study checked by HPLC; type: physicochemical; conditions: 0-4° C., 40-90% humidity
Protocol: A comparison in stability between Compound (Ia) and the substance retin-15-yl ester retinoic acid (CAS No. 15498-86-9) was outlined by performing HPCL analysis of the two compounds throughout an extended storage period.
The stability study was performed at 0-4° C. and 40-90% humidity. The samples of each product, packed in polyethylene bag inside a closed polyethylene box, were maintained under the above mentioned condition for the given time (see below). The stability of the product was checked by HPLC analysis using the method reported here below: A Young Lin YL9100 HPLC System was equipped with a variable volume automatic injector and a YL-Clarity data system. A Capcellpack UG 120 C-18, 150×4.6 mm, 5 μm, column from Agilent Technologies was used with a column temperature of 25±2° C., a flow rate of 1.5 ml/min, an injection volume of 10 μl, a wavelength of 326 nm. The mobile phase was A: water containing 0.1% acetic acid; B: acetonitrile containing 0.1% acetic acid; C: methanol containing 0.1% acetic acid; and D: isopropanol. For a run time of 40 min the gradient was: […]
The Working Solution: dissolve the sample under stability study in acetonitrile in a concentration of 1 mg/ml and inject as it.
With reference to FIG. 1 and FIG. 2, the HPLC peaks with the highest area percentage (retention time 26.1 for Compound (1a) and 12.2 for retin-15-yl ester retinoic acid).

[2] = tested on: BALB/c 3T3 cells; assay: In vitro phototoxicity test, neutral red uptake with and without UVA; type: cell-based
Protocol: In the present study the phototoxicity effects of compound (1a) were analyzed by dissolving the test item in DMSO and diluting to 1.100 ratio with Earle's balanced test solution. BALB/C 3T3 cells were treated for 1 h with different concentrations of the test solution at 37±1±° C. and further 50 min in absence and in presence of a non-toxic dose of UVA light, respectively. One day after treatment cytotoxicity was analyzed as a measure of reduction of neutral red uptake and compared to the controls. […] However, since the calculated mean photo effect (MPE) is <0.1 (0.027 in a rangefinder experiment; 0.056 in the main experiment) the test item is classified as non-toxic.

[3] = Highest soluble concentration in DMSO; type: physicochemical; conditions: organic solvent or mixture
[4] = tested on: reconstituted three-dimensional human epidermis model (EPISKIN-SM); assay: In vitro skin irritation test, EPISKIN-Standard Model, MTT; type: cell-based
Protocol: The skin irritant potential of compound (1a) was analyzed with a reconstituted three-dimensional human epidermis model, the EPISKIN-Standard Model® (EPISKIN-SM®) as a replacement for the Draize Skin Irritation Test (OECD TG 404) to distinguish between UN GHS “Category 2” skin irritating test substances and not categorized test substances (“No Category”) which may be considered as non-irritant. Hereby, the test item was applied topically. Cytotoxicity is expressed as reduction of mitochondrial dehydrogenase activity measured by formazan production from MTT after a 15 min exposure and 42 h post incubation period and compared to those of the concurrent negative controls.
The relative mean tissue viability after 15 min of exposure and 42 h post incubation was >50%. The test item, compound (1a) is therefore classified as “non-irritant” in accordance with UN GHS “No Category”.

[5] = In vitro skin corrosion membrane barrier test (CORROSITEX Assay)
Protocol: The skin corrosive potential of compound (1a) was analyzed. Corrosive chemicals are dependent on their grade of corrosivity able to break through the bio-barrier membrane employed in the “in vitro Membrane barrier test (CORROSITEX® Assay)” (see EVCAM (2000) ESAC statement on the application of the Corrositex® assay for skin corrosivity testing. The test system is composed of a synthetic bio-barrier that is placed on a chemical detection system (CDS). The time necessary to activate the CDS allows to distinguish between Corrosive© and non-corrosive (NC) test substances. Hereby the test item was placed atop the bio-barrier membranes. The CDS activation was assessed as a color change or a change in consistency. […] Compound (1a) accordingly was classified as non-corrosive.

CC1=C(/C=C/C(C)=C/C=C/C(C)=C/C(=O)OCCNC(=O)c2cccnc2)C(C)(C)CCC1 [Compound (1a), 2-(nicotinamido)-ethyl retinoate]
stability (HPLC) ([1]; after about two months): practically stable | phototoxicity classification ([2]; MPE <0.1): non-toxic | cytotoxic effect with UVA radiation ([2]; in case of UVA radiation): slight cytotoxic effect | mean photo effect (MPE) ([2]; main experiment): 0.056 | mean photo effect (MPE) ([2]; rangefinder experiment): 0.027 | solubility [3]: 2000 µg/mL (≈ 4.46 mM) | relative mean tissue viability ([4]; 15 min exposure, 42 h post incubation): > 50% | skin irritation classification (UN GHS) ([4]; UN GHS No Category): non-irritant | skin corrosivity classification [5]: non-corrosive | mean time required to activate the CDS ([5]; Corrositex bio-barrier membrane): > 60 min

CC1=C(/C=C/C(C)=C/C=C/C(C)=C/COC(=O)/C=C(C)/C=C/C=C(C)/C=C/C2=C(C)CCCC2(C)C)C(C)(C)CCC1 [retin-15-yl ester retinoic acid, reference compound]
decrease of purity with respect to the starting time (HPLC) ([1]; in one month): 5%
